# From patent publication US8592485B2, “Methods and pharmaceutical compositions for treating the animal central nervous system for psychiatric disorders” (HealthPartners Research Foundation, priority 2010, dated 2013)
# Assays:
# GSK3b = assay: Hippocampal pGSK3b/GSK3b ratio in C57 mice after DFO (western blot, ELISA); format: in vivo; settings: hippocampus (FIG. 1A); for higher ratio of pGSK3b/GSK3b than PBS mice: upper third of nasal cavity, five days/week for four weeks
# Description: The study method providing results in FIGS. 1A and 1B comprised normal C57 mice which were treated with DFO by administration to the upper third of the nasal cavity, thereby delivering the DFO directly to the CNS by bypassing the blood-brain barrier. Treatment groups consisted of 1% DFO, 10% DFO and saline. Mice were treated five days/week for four weeks. Mice were then dosed a final time, euthanized after 30 minutes, brain tissues collected an analyzed for biochemical changes. Protein extraction was achieved by homogenization of frozen brain tissues in 5 volumes of ice-cold RIPA buffer supplemented with protease inhibitor cocktail and phosphatase inhibitor cocktail. Homogenates were centrifuged at 20,000×g for 20 minutes at 4C. Supernatant was collected from the cortex, diencephalon and hippocampus and stored at −70C until analysis by western blot and ELISA.
# [1] = cited from earlier work
# [2] = cited from earlier work; remark: listed apart in the source
# [3] = Intranasal delivery of DFO (bound to 59Fe) to rats, tissue concentrations by scintillation counting
# Description: Delivery of intranasal DFO to the upper one-third of the nasal cavity has been assessed by administering 6 mg DFO bound to 6 μCi of ^59Fe (as ^59FeCl3) to rats under anesthesia. The IN dose in 60 μL was administered as 6 μL drops over twenty minutes. Following delivery, tissues were removed for analysis.
SMILES,higher ratio of pGSK3b/GSK3b than PBS mice (GSK3b; 1% DFO) [%],"higher ratio of pGSK3b/GSK3b of 10% DFO mice than 1% DFO mice (GSK3b; 10% DFO versus 1% DFO, intranasal) [%]",higher ratio of pGSK3b/GSK3b than PBS mice (GSK3b; 10% DFO) [%],"typical plasma half-life ([1]; humans, intravenous)",crossing of the blood-brain barrier ([1]; intravenously or systemically administered),effect of injection of an intravenous bolus [2],blood concentrations of ferrioxamine ([3]; 5 minute intervals from dosing up to 25 minutes post-dose),labeled ferrioxamine in brain by scintillation counting ([3]; intranasal 6 mg DFO bound to 6 uCi 59Fe)
"CC(=O)N(O)CCCCCNC(=O)CCC(=O)N(O)CCCCCNC(=O)CCC(=O)N(O)CCCCCN [DFO, deferoxamine]",99.8,57.4,214,less than 10 minutes,does not efficiently or effectively cross the blood-brain barrier,acute hypotension,,
CC(=O)N([O-])CCCCCNC(=O)CCC(=O)N([O-])CCCCCNC(=O)CCC(=O)N([O-])CCCCCN.[Fe+3] [ferrioxamine],,,,,,,quite low,detected throughout the brain
